Data published in patent US7723473B2, “Peptide antagonists of TGF-beta family members and therapeutic uses thereof” (St. Louis University, priority 1997, dated 2010).
Entries after “also recorded” stand apart in the source; their conditions may differ.

System: excision wounds
Assay: Pig excision wound model
Assay type: in vivo
Conditions: for deposition / immunostaining of fibronectin in excision wounds / deposition / immunostaining of type I collagen in excision wounds: post-excision day 30 (legend: day 28), immunohistochemistry
Experimental: Preparation of IntraSite® gel containing TGF-β peptantagonist (peptide TGF-beta antagonist). 1 ml of sterile 6 mM peptide β1^25 (41-65) in phosphate buffered saline or 1 ml of sterile phosphate buffered saline was vigorously mixed with 3 ml of IntraSite® gel using two 10 ml syringes connected with a three-way connector. […] However, 1.5 mM of peptide β1^25 (41-65) was used throughout the experiments described below.
Excision wound model. Four pigs received intramuscular injection of ketamine, strenil® and atropine as described above. Six excision injuries were generated by removing full-thickness sections of skin (3×3 cm) from standardized sites on the back of each animal using a scapel. Three rabbits, were anesthetized by intramuscular injection of ketamine (5 mg/kg). Three excision injuries were produced in each by removing full-thickness sections of skin (0.5×1 cm) from each ear. After wounds, a thin layer of IntraSite® gel containing peptide β1^25 (41-65) was applied to alternating wounds on each animal and IntraSite® gel+buffer was applied to the other half. The excision wounds were then dressed with a paraffin gauze. For pig experiments, the dressing was changed every two days for the first 10 days and twice a week for the next 30 days. For rabbit experiments, the dressing was changed for the first 3 days. Gel containing peptide β1^25 (41-65) or control gel was applied at each dressing change.
Assessment of wound healing. Wound healing was assessed by evaluating the rates of wound re-epithelization and contraction. The open wound area and the area enclosed by the normal hair bearing skin were measured using the macrophotography technique (Ref. 14). The healing rate was monitored every two days for the first 10 days and twice a week for 30 more days. Wound reepithelialization as a percent of the original wound size was calculated using the following formula:
[formula] where C=rate of wound contraction in percent; Al=wound area as measured immediately following the burn or excision injury; An=area enclosed by normal hair bearing skin.
Immunohistochemistry. The wounds were frozen immediately after being removed from animals on post-excision day 30. Serial sections were placed on polylysine-coated slides. The sections containing wound areas were stained with hematoxylin/eosin and monoclonal antibodies to type I collagen and fibronectin and biotin-conjugated rabbit anti-mouse IgG/streptavidin-conjugated horseradish peroxidase (Ref. 16). The stained sections were examined and photographed by light microscopy.

## ANFCLGPCPYIWSLDTQYSKVLALY [peptide β1^25 (41-65)]
1.5 mM in gel, topical
  contraction of the wound: attenuated contraction
  vertical (length of the healed wound) contraction versus vehicle only: less vertical
1.5 mM in gel, topical, listed as TGF-β peptantagonist
  vertical (length of the healed wound) contraction versus vehicle only: contracted vertically less; also recorded: less vertical
  deposition / immunostaining of fibronectin in excision wounds: diminished the deposition
  deposition / immunostaining of type I collagen in excision wounds: diminished the deposition
Listed as TGF-β peptantagonist
  deposition / immunostaining of fibronectin in excision wounds: less intensity of staining
  deposition / immunostaining of type I collagen in excision wounds: less intensity of staining
post-excision day 41
  horizontal (width of the healed wound) contraction: almost contracted completely
